{"source": "patent US20050101633A1", "about": "“Remedial agent for myelopathic disease” (priority 2001, published 2005)", "key": {"[1]": {"system": "spinal cord injury model in rats", "details": "reported in Brain Research, 799, 264-269 (1998); cited from earlier work"}, "[2]": {"system": "rat spinal cord injury model", "test": "Improvement of dyskinesia, open field walking scale after spinal cord injury", "type": "in vivo", "details": "50 mg/kg injected 15 min before SCI; compression injury with 20-g weight; up to 28 days; FIG. 4", "experimental": "(§1) SCI was induced 15 min after injection of test compound (50 mg/kg). Dyskinesia was assessed according to an open field walking scale (Behrmann et al., Exp. Neurol. 126, 61-75 (1994)) and an inclined-plane test (Rivlin et al., J. Neurosurg. 47, 577-581 (1977)) using rats subjected to compression injury with a 20-g weight. In the open field walking scale, animals were scored from 0 (no spontaneous movement) to 5 (normal gait) based on 5 min of observation. With the scale, the animal's capability for gross hindlimb movement was evaluated before SCI, every 2 days afterward for 2 weeks beginning on the first day, and later at 21 and 28 days after injury. In the inclined-plane test, a cork mat was fixed to the surface of a movable inclined plane. We recorded the maximal angle of inclined-plane at which the rat could maintain position for […]. This was evaluated before and at 1, 7, 14, 21 and 28 days after injury."}, "myeloperoxidase activity": {"system": "myeloperoxidase activity", "test": "Assay of myeloperoxidase (MPO) activity in T13 spinal cord segment after spinal cord injury", "type": "in vivo, rat", "details": "administered 15 minutes before spinal cord injury, FIG. 2", "experimental": "For assessment of accumulation and infiltration of leukocytes, we measured myeloperoxidase activity according to a modification of the method of Xu et al. (J. neurochem. 55, 907-912 (1990)). The test compound was administrated 15 minutes before spinal cord injury, and then the T13 segments 2, 4, 8, 12 and 24 h after injury were sonicated in 1 mL of 50 mM potassium phosphate buffer (pH 6.0) containing 0.5% […]. The homogenates were centrifuged at 10,000×g for 20 min, and 0.1 mL of the supernatant was added to 0.6 mL of 50 mM potassium phosphate buffer (pH 6.0) containing 0.53 mM o-dianisidine dihydrochrolide and 0.15 mM H2O2. After 5 min, the change in absorbance at 460 nm was monitored with a spectrophotometer (model DU 640, Beckmann, Germany)."}, "CINC-1 protein": {"system": "CINC-1 protein", "test": "Suppression of CINC-1 expression on rat spinal cord injury model", "type": "in vivo", "details": "Wistar rats; injected via femoral vein 15 min before spinal cord injury; T13 segment; FIG. 1", "experimental": "Under anesthesia using pentobarbital (40 mg/kg of body weight), spinal cord injury model was made using Wistar rats weighing 250-300 g according to the operative procedure of Tonai et al. [J. Neurochem. 72, 302-309 (1999)]. At various time intervals after injury, the rats were frozen, and then T13 spinal cord segment was removed for analysis of CINC-1 protein.\nThe test compound was dissolved in physiologic saline containing 12 mM Na2CO3 and injected via the femoral vein 15 min before spinal cord injury. Saline vehicle alone was administered by the same route in control animals."}, "[3]": {"system": "rat spinal cord injury model", "test": "Improvement of dyskinesia, inclined-plane test after spinal cord injury", "type": "in vivo", "details": "50 mg/kg injected 15 min before SCI; compression injury with 20-g weight; up to 28 days; FIG. 5", "experimental": "as §1"}, "blood-CNS barrier": {"system": "blood-CNS barrier", "test": "Blood-CNS barrier disruption (Evans blue dye) after spinal cord injury", "type": "in vivo, rat", "details": "50 mg/kg injected 15 min before SCI; Evans blue at 6 h after SCI; FIG. 3", "experimental": "Disruption of the blood-CNS barrier was assessed according to the method of Uyama et al. [J. Cereb. Blood Flow Metab. 8, 282-284 (1988)] with certain modifications. SCI was induced 15 min after injection of test compound (50 mg/kg). At 6 h after SCI, 4 mL/kg of 2.5% Evans blue dye solution was administered via the femoral vein. One hour later rats were anesthetized by pentobarbital (40 mg/kg) and killed. The T13 spinal cord segment was removed and homogenized in 1 mL of 50% trichloroacetic acid (w/v). After centrifugation the extracted dye was diluted fourfold with ethanol, and its fluorescence was quantified using a spectrophotometer at an excitation wavelength of 620 nm and an emission wavelength of 680 nm."}}, "data": [{"compound": "Eglin C", "values": [{"measurement": "efficacy in spinal cord injury model in rats", "setting": "[1]", "value": "effective"}]}, {"compound": "CO[C@H]1C(=O)N2C(C(=O)N3CCC[C@H]3C(=O)O)=C(COC(C)=O)CS(=O)(=O)[C@H]12", "note": "[L 658,758]", "values": [{"measurement": "efficacy in spinal cord injury model in rats", "setting": "[1]", "value": "effective"}]}, {"compound": "CC(C)(C)C(=O)Oc1ccc(S(=O)(=O)Nc2ccccc2C(=O)NCC(=O)[O-])cc1.O.O.O.O.[Na+]", "note": "[compound (X), N-[o-(p-pivaloyloxybenzenesulfonylamino)benzoyl]glycine monosodium salt tetrahydrate]", "values": [{"measurement": "dyskinesia after spinal cord injury, open field walking scale", "setting": "[2]", "value": "suppressed dyskinesia after spinal cord injury significantly"}, {"measurement": "myeloperoxidase activity", "setting": "myeloperoxidase activity; 4 hours after injury", "value": "46 % of control"}, {"measurement": "myeloperoxidase activity", "setting": "myeloperoxidase activity; 12 hours after injury", "value": "61 % of control"}, {"measurement": "myeloperoxidase activity", "setting": "myeloperoxidase activity; 24 hours after injury", "value": "64 % of control"}, {"measurement": "CINC-1 protein expression after spinal cord injury", "setting": "CINC-1 protein", "value": "suppressed in dose-dependently"}, {"measurement": "dyskinesia after spinal cord injury, inclined-plane test", "setting": "[3]", "value": "suppressed dyskinesia after spinal cord injury significantly"}, {"measurement": "Blood-CNS barrier disruption", "setting": "blood-CNS barrier", "value": "suppressed Blood-CNS barrier disruption significantly"}]}]}
